{
  "source": "patent US20240206465A1",
  "about": "“ACTIVE POLYMERIC FILMS AND POLYMERIC COMPOSITIONS” (Yissum Research Development Company of the Hebrew …, priority 2021, published 2024)",
  "key": {"T4 phage": {"test_system": "T4 phage", "conditions": "peptide assemblies deposited on the glass surface; cited from earlier work"}, "canine coronavirus": {"test_system": "canine coronavirus", "conditions": "peptide assemblies deposited on the glass surface; cited from earlier work"}, "[1]": {"assay": "Thermogravimetric analysis (thermal stability)", "type": "physicochemical", "conditions": "at 160° C.; contained the absorbed water; FIG. 4A", "protocol": "Thermogravimetric analysis (TGA). TGA measurements were performed using the TGA Q5000 system (TA instruments, USA) at a heating rate of 10° C./min under nitrogen atmosphere, starting from room temperature to 800° C. The results were analyzed using Universal Analysis 200 version 4.5 A build 4.5.0.5 software."}},
  "note": "Square brackets hold non-standard residues; d marks the D form. Ends that are not written are not given here. Phe(4-F) = N[C@@H](Cc1ccc(F)cc1)C(=O)O; Dopa = N[C@@H](Cc1ccc(O)c(O)c1)C(=O)O",
  "data": [
    {"substance": "[Dopa]-[Phe(4-F)]-[Phe(4-F)]-OMe", "values": [
      {"measurement": "antiviral activity against T4 phage", "setting": "T4 phage", "result": "acted against"},
      {"measurement": "antiviral activity against canine coronavirus", "setting": "canine coronavirus", "result": "acted against"},
      {"measurement": "weight loss of the peptide (TGA)", "setting": "[1]", "result": "< 3", "unit": "wt %"}
    ]}
  ]
}
